Source: ChEMBL document CHEMBL1150496, “Synthesis and biological activity of C-5 modified derivatives of (+)-AJ76 and (+)-UH232: Increased dopamine D3 receptor preference and improved pharmacokinetic properties” (Bioorg Med Chem Lett, 1994)
Activity calls are given as the source filed them. The rule behind the calls is not given here.

Key:
Rattus norvegicus [1] = test: In vivo 5-HIAA level was measured in killed rat limbic brain regions at a dose of 100 umol/kg, sc; format: functional, Limbic system; design: unit not given here
Rattus norvegicus [2] = test: In vivo DOPAC level was measured in killed rat striatal brain regions at a dose of 100 umol/kg, sc; format: functional; design: unit not given here
Rattus norvegicus [3] = test: In vivo HVA level was measured in killed rat striatal brain regions at a dose of 100 umol/kg, sc; format: functional; design: unit not given here
Rattus norvegicus [4] = test: In vivo locomotor activity (LMA) in habituated rats at a dose of 100 umol/kg, sc, for 60 mins after 60 min habituation period; format: functional; design: unit not given here
D(2) dopamine receptor [5] = molecular target: T1, D(2) dopamine receptor (Homo sapiens, UniProt P14416); test: Binding affinity was measured at cloned mammalian dopamine D2 receptor expressed in CHO-K1 cells (using [3H]U-86,170); NA means Inactive; format: cell-based
T1 sequence (P14416 whole entry): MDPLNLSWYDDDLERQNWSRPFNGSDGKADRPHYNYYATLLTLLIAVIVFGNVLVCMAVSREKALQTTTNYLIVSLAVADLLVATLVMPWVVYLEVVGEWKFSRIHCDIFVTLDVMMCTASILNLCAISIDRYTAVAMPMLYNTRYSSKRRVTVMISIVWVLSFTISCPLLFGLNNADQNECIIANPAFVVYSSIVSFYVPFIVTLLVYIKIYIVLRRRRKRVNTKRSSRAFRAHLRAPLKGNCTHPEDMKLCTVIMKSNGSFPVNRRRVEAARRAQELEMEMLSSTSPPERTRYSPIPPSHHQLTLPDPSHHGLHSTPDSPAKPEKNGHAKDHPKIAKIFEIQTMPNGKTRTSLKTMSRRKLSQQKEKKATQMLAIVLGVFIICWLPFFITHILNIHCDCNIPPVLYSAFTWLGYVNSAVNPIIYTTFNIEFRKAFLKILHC

D(2) dopamine receptor [6] = molecular target: T1, D(2) dopamine receptor; test: Percent inhibition against dopamine D2 receptor at a concentration of 1 umol/L
D(3) dopamine receptor [7] = molecular target: D(3) dopamine receptor (Rattus norvegicus, UniProt P19020); test: Binding affinity was measured at cloned mammalian dopamine D3 receptor expressed in CHO-K1 cells (using [3H]- spiperone); NA means inactive; format: cell-based
Chain of D(3) dopamine receptor (Rattus norvegicus, UniProt P19020) (P19020 whole entry): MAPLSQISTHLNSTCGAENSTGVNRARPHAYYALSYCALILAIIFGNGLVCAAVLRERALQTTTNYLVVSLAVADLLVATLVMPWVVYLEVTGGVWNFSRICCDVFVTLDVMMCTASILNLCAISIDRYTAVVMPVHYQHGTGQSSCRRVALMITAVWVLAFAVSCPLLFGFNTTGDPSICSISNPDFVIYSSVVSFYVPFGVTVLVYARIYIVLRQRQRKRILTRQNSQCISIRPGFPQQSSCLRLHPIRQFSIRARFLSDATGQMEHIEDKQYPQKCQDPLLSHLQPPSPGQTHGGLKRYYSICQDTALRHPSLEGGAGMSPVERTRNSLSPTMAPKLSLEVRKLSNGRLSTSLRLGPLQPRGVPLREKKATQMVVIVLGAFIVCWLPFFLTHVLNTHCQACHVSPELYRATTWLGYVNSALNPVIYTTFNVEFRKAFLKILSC

[8] = molecular target: D(3) dopamine receptor (Rattus norvegicus) (UniProt P19020); test: Percent inhibition against dopamine D3 receptor at a concentration of 1 umol/L
Chain of D(3) dopamine receptor (Rattus norvegicus) (P19020 whole entry): as above

D(2) dopamine receptor [9] = molecular target: D(2) dopamine receptor (Rattus norvegicus, UniProt P61169); test: Binding affinity was measured from rat striatal membrane using [3H]-spiperone at D2 receptors
Chain of D(2) dopamine receptor (Rattus norvegicus, UniProt P61169) (P61169 whole entry): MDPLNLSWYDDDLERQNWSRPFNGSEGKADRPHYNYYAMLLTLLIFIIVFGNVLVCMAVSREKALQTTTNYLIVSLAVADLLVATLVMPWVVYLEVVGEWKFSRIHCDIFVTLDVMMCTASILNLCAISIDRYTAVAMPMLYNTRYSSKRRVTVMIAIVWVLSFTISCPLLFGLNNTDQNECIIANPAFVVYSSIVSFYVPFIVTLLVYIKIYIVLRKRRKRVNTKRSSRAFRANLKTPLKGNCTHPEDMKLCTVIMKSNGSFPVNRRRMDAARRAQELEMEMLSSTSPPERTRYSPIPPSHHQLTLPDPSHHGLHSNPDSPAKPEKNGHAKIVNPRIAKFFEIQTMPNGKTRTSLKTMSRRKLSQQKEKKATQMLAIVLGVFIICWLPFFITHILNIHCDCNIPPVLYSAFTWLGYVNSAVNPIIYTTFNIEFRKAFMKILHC

D(4) dopamine receptor [10] = molecular target: T2, D(4) dopamine receptor (Homo sapiens, UniProt P21917); test: Binding affinity was measured at cloned mammalian dopamine D4 receptor expressed in CHO-K1 cells (using [3H]- spiperone); NA means inactive; format: cell-based
T2 sequence (P21917 whole entry): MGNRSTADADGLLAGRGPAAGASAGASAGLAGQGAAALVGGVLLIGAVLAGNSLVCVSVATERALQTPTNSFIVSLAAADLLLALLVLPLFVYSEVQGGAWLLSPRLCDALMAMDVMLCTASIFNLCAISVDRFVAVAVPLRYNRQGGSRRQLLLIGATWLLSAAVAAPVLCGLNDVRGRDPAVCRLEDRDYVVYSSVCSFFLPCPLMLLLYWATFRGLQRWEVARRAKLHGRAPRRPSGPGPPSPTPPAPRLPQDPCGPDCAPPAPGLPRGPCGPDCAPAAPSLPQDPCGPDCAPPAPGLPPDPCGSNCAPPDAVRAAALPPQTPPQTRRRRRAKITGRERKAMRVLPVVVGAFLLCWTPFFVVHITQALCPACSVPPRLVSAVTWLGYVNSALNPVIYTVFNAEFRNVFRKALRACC

[11] = molecular target: T3, D(4) dopamine receptor (Homo sapiens) (UniProt P21917); test: Percent inhibition against dopamine D4 receptor at a concentration of 1 umol/L
T3 sequence (whole entry): T2 sequence (P21917 whole entry)

Rattus norvegicus [12] = test: In vivo 5-HIAA level was measured in killed rat limbic brain regions at a dose of 25 umol/kg, sc; format: functional, Limbic system
Rattus norvegicus [13] = test: In vivo DOPAC level was measured in killed rat striatal brain regions at a dose of 25 umol/kg, sc; format: functional
Rattus norvegicus [14] = test: In vivo HVA level was measured in killed rat striatal brain regions at a dose of 25 umol/kg, sc; format: functional
Rattus norvegicus [15] = test: In vivo locomotor activity (LMA) in habituated rats at a dose of 25 umol/kg, sc, for 60 mins after 60 min habituation period; format: functional
[16] = molecular target: T4, 5-hydroxytryptamine receptor 1A (Homo sapiens, UniProt P08908); test: (§1) Binding affinity was measured at cloned mammalian 5-HT1A receptor expressed in CHO-K1 cells (using [3H]8-OH-DPAT ); format: cell-based
T4 sequence (P08908 whole entry): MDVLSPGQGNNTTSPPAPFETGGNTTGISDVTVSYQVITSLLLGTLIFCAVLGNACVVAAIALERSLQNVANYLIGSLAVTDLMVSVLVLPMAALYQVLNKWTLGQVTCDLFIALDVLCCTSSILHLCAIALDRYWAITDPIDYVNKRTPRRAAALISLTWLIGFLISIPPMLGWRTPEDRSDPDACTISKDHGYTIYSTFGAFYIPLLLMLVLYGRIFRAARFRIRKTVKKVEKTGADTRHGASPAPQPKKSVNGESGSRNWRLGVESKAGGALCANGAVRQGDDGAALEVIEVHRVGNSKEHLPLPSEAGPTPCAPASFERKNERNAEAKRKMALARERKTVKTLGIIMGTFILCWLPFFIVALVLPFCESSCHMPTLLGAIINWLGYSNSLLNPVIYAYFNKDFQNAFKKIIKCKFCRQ

[17] = molecular target: T5, 5-hydroxytryptamine receptor 1A (Rattus norvegicus, UniProt P19327); test: Binding affinity was measured at 5-HT1A receptor in rat striatal membranes using [3H]8-OH-DPAT; format: cell membranes, Striatum, Membrane
T5 sequence (P19327 whole entry): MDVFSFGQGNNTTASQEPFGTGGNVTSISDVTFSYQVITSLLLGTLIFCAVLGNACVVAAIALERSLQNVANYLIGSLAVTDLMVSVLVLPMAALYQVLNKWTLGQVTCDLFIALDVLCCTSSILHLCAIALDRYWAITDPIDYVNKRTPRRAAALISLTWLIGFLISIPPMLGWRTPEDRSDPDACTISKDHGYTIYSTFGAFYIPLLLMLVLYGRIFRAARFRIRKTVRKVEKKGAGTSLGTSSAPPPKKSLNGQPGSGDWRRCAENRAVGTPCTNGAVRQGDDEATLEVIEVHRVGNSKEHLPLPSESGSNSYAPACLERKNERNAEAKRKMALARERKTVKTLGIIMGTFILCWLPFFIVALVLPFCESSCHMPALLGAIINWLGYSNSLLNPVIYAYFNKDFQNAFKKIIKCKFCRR

[18] = Half-life was estimated from the elimination phase of the oral [C] vs time curves in 4 rats; format: ADME, organism-based; conditions: rat, in vivo
[19] = In vivo percent of absolute bioavailability obtained from blood plasma levels analyzed by means of GC/MS (dose 5 uM/kg i.v. and 40 uM/kg, p.o.); format: ADME, organism-based; conditions: rat, po
D(2) dopamine receptor [20] = molecular target: T1, D(2) dopamine receptor; test: Binding affinity was measured at cloned mammalian dopamine D2 receptor expressed in CHO-K1 cells (using [3H]U-86170); format: cell-based
D(3) dopamine receptor [21] = molecular target: D(3) dopamine receptor (Homo sapiens, UniProt P35462); test: Binding affinity was measured at cloned mammalian dopamine D3 receptor expressed in CHO-K1 cells (using [3H]- spiperone); format: cell-based
Chain of D(3) dopamine receptor (Homo sapiens, UniProt P35462) (P35462 whole entry): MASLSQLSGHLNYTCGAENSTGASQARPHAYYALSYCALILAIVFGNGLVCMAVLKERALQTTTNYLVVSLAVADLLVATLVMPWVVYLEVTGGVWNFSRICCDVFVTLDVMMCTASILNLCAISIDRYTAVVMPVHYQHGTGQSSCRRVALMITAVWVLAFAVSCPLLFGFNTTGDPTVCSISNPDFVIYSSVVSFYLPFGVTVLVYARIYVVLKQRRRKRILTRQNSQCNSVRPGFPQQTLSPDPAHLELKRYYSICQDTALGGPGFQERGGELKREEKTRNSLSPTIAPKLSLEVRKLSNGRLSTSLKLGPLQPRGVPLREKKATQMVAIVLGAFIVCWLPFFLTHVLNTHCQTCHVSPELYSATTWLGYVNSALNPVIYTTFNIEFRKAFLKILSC

D(4) dopamine receptor [22] = molecular target: T2, D(4) dopamine receptor; test: Binding affinity was measured at cloned mammalian dopamine D4 receptor expressed in CHO-K1 cells (using [3H]- spiperone); format: cell-based
Rattus norvegicus [23] = test: In vivo 5-HIAA level was measured in killed rat limbic brain regions at a dose of 200 umol/kg, sc; format: functional, Limbic system
Rattus norvegicus [24] = test: In vivo DOPAC level was measured in killed rat striatal brain regions at a dose of 200 umol/kg, sc; format: functional
Rattus norvegicus [25] = test: In vivo HVA level was measured in killed rat striatal brain regions at a dose of 200 umol/kg, sc; format: functional
Rattus norvegicus [26] = test: In vivo locomotor activity (LMA) in habituated rats at a dose of 200 umol/kg, sc, for 60 mins after 60 min habituation period; format: functional
[27] = molecular target: 5-hydroxytryptamine receptor 1A (Homo sapiens, UniProt P08908); test: as §1; format: cell-based; remark: listed apart in the source
Rattus norvegicus [28] = test: In vivo 5-HIAA level was measured in killed rat limbic brain regions at a dose of 12.5 umol/kg, sc; format: functional, Limbic system
Rattus norvegicus [29] = test: In vivo DOPAC level was measured in killed rat striatal brain regions at a dose of 12.5 umol/kg, sc; format: functional
Rattus norvegicus [30] = test: In vivo DOPAC level was measured in killed rat striatal brain regions at a dose of 50 umol/kg, sc; format: functional
Rattus norvegicus [31] = test: In vivo HVA level was measured in killed rat striatal brain regions at a dose of 12.5 umol/kg, sc; format: functional
Rattus norvegicus [32] = test: In vivo HVA level was measured in killed rat striatal brain regions at a dose of 50 umol/kg, sc; format: functional
Rattus norvegicus [33] = test: In vivo locomotor activity (LMA) in habituated rats at a dose of 12.5 umol/kg, sc, for 60 mins after 60 min habituation period; format: functional
Rattus norvegicus [34] = test: In vivo locomotor activity (LMA) in habituated rats at a dose of 50 umol/kg, sc, for 60 mins after 60 min habituation period; format: functional
Rattus norvegicus [35] = test: In vivo 5-HIAA level was measured in killed rat limbic brain regions at a dose of 50 umol/kg, sc; format: functional, Limbic system
Rattus norvegicus [36] = test: In vivo 5-HIAA level was measured in killed rat limbic brain regions at a dose of 100 umol/kg, oral; format: functional, Limbic system
Rattus norvegicus [37] = test: In vivo DOPAC level was measured in killed rat striatal brain regions at a dose of 100 umol/kg, oral.; format: functional
Rattus norvegicus [38] = test: In vivo HVA level was measured in killed rat striatal brain regions at a dose of 100 umol/kg, oral.; format: functional
Rattus norvegicus [39] = test: In vivo locomotor activity (LMA) in habituated rats at a dose of 100 umol/kg, oral, for 60 mins after 60 min habituation period; format: functional
Rattus norvegicus [40] = organism: Rattus norvegicus; test: In vitro stability relative to (+)-AJ76 in rat hepatocyte assay; In active; format: functional

Row | Compound | Activity (Rattus norvegicus [1]) | Activity (Rattus norvegicus [2]) | Activity (Rattus norvegicus [3]) | Activity (Rattus norvegicus [4]) | half-life [18] | bioavailability [19] | Ki (D(2) dopamine receptor [20]) | Ki (D(3) dopamine receptor [21]) | Ki (D(4) dopamine receptor [22]) | Activity (Rattus norvegicus [23]) | Activity (Rattus norvegicus [24]) | Activity (Rattus norvegicus [25]) | Activity (Rattus norvegicus [26]) | Ki [27] | further results
1 | CCCN(CCC)[C@@H]1CCc2c(C(N)=O)cccc2[C@@H]1C | 113 | 135 | 128 | 169 |  |  |  |  |  |  |  |  |  |  | 
2 | CCCN[C@@H]1CCc2c(C#N)cccc2[C@@H]1C | 100 | <224 | <248 | 149 |  |  |  |  |  |  |  |  |  |  | Ki (D(2) dopamine receptor [5]): Not Active; inhibition (D(2) dopamine receptor [6]): < 50%; Ki (D(3) dopamine receptor [7]): Not Active; inhibition [8]: < 50%; Ki (D(2) dopamine receptor [9]): 16700 nM; Ki (D(4) dopamine receptor [10]): Not Active; inhibition [11]: < 50%; Activity (Rattus norvegicus [12]): 102; Activity (Rattus norvegicus [13]): 121; Activity (Rattus norvegicus [14]): 136; Activity (Rattus norvegicus [15]): 165; Ki [16]: > 1790 nM
3 | CCCN[C@@H]1CCc2c(C(N)=O)cccc2[C@@H]1C | 97 | 109 | 105 | 215 |  |  |  |  |  |  |  |  |  |  | Ki [17]: 6720 nM
4 | CCCN(CCC)[C@@H]1CCc2c(OS(=O)(=O)C(F)(F)F)cccc2[C@@H]1C |  |  |  |  | 6 h | 9.4% | 546 nM | 40 nM | 121 nM | 94 | <146 | <163 | <250 | > 3450 nM | 
5 | CCCN[C@@H]1CCc2c(OC)cccc2[C@@H]1C |  |  |  |  | 1 h | 1.6% | 145 nM |  |  |  |  |  |  |  | Activity (Rattus norvegicus [28]): 121; Activity (Rattus norvegicus [29]): <220; Activity (Rattus norvegicus [30]): <346; Activity (Rattus norvegicus [31]): <251; Activity (Rattus norvegicus [32]): <402; Activity (Rattus norvegicus [33]): <272; Activity (Rattus norvegicus [34]): <354; Activity (Rattus norvegicus [35]): 127
6 | CCCN(CCC)[C@@H]1CCc2c(C#N)cccc2[C@@H]1C | 95 | <213 | <241 | <334 |  |  |  |  |  |  |  |  |  |  | Ki (D(2) dopamine receptor [9]): 6670 nM; Activity (Rattus norvegicus [36]): 82; Activity (Rattus norvegicus [12]): 93; Activity (Rattus norvegicus [37]): <128; Activity (Rattus norvegicus [13]): <127; Activity (Rattus norvegicus [38]): <166; Activity (Rattus norvegicus [14]): <134; Activity (Rattus norvegicus [39]): <287; Activity (Rattus norvegicus [15]): 125; Ki [17]: 5040 nM
7 | CCCN[C@@H]1CCc2c(C(=O)OC)cccc2[C@@H]1C |  |  |  |  |  |  | 2330 nM | 253 nM | 1590 nM | <75 | 117 | 120 | 102 | 287 nM | 
8 | CCCN(CCC)[C@@H]1CCc2c(OC)cccc2[C@@H]1C |  |  |  |  | 2.5 h | 3.7% | 15 nM | 4.2 nM |  |  |  |  |  |  | Activity (Rattus norvegicus [40]): inactive; Activity (Rattus norvegicus [28]): 119; Activity (Rattus norvegicus [29]): <176; Activity (Rattus norvegicus [31]): <214; Activity (Rattus norvegicus [33]): <191; Activity (Rattus norvegicus [34]): <200
9 | CCCN[C@@H]1CCc2c(OS(=O)(=O)C(F)(F)F)cccc2[C@@H]1C |  |  |  |  | 6 h | 62.2% | 2560 nM | 171 nM | 621 nM | 92 | <130 | <135 | 167 | 3070 nM | 
